Experimental data: ChEMBL document CHEMBL1201862, “PubChem BioAssay data set” (2004)
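Cells were grown in 96-well plates and exposed to each compound for 48 hours at five concentrations; endpoints were interpolated linearly between bracketing concentrations, or set to the highest concentration if not reached. GI50 marks 50% less growth.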 Active and inactive are the calls of the source. No stated cut-off is given here; in the data, active = GI50 up to about 1.1 µM and inactive = higher.

Tests used:
Assay in all cases: NCI anticancer screen, dose series, 48 h
[1] = tested on: RXF 393
[2] = tested on: A549
[3] = tested on: OVCAR-4
[4] = tested on: HOP-62
[5] = tested on: SK-MEL-2
[6] = tested on: BT-549
[7] = tested on: NCI-H23
[8] = tested on: MDA-N
[9] = tested on: HT-29
[10] = tested on: KM12
[11] = tested on: Malme-3M
[12] = tested on: SF-295
[13] = tested on: SN12C
[14] = tested on: NCI/ADR-RES
[15] = tested on: HCT-116
[16] = tested on: T47D
[17] = tested on: SK-MEL-28
[18] = tested on: SW-620
[19] = tested on: COLO 205
[20] = tested on: LOX IMVI
[21] = tested on: MDA-MB-435
[22] = tested on: 786-0
[23] = tested on: UO-31
[24] = tested on: OVCAR-8
[25] = tested on: DU-145
[26] = tested on: CCRF-CEM
[27] = tested on: ACHN
[28] = tested on: SR
[29] = tested on: PC-3
[30] = tested on: U-251
[31] = tested on: SNB-75
[32] = tested on: SNB-19
[33] = tested on: UACC-62
[34] = tested on: HCC 2998
[35] = tested on: EKVX
[36] = tested on: IGROV-1
[37] = tested on: Hs-578T
[38] = tested on: HOP-92
[39] = tested on: HCT-15
[40] = tested on: CAKI-1
[41] = tested on: UACC-257
[42] = tested on: OVCAR-5
[43] = tested on: NCI-H522
[44] = tested on: K562
[45] = tested on: RPMI-8226
[46] = tested on: M14
[47] = tested on: NCI-H460
[48] = tested on: TK-10
[49] = tested on: SK-MEL-5
[50] = tested on: MOLT-4
[51] = tested on: SK-OV-3
[52] = tested on: MCF7
[53] = tested on: NCI-H226
[54] = tested on: MDA-MB-231
[55] = tested on: HL-60
[56] = tested on: SF-268
[57] = tested on: OVCAR-3
[58] = tested on: SF-539
[59] = tested on: A498

## C=C1C(=O)O[C@H]2C1C[C@@H](OC(C)=O)/C(C)=C/CC[C@@]1(C)O[C@H]21 (stereo not given in full)
[1]
  GI50: 6.53 µM (inactive)
[2]
  GI50: 49.7 µM (inactive)
[3]
  GI50: 13 µM (inactive)
[4]
  GI50: 17.6 µM (inactive)
[5]
  GI50: 21.8 µM (inactive)
[6]
  GI50: 5.92 µM (inactive)
[7]
  GI50: 15.1 µM (inactive)
[8]
  GI50: 2.93 µM (inactive)
[9]
  GI50: 20.1 µM (inactive)
[10]
  GI50: 21.8 µM (inactive)
[11]
  GI50: 4.36 µM (inactive)
[12]
  GI50: 21.1 µM (inactive)
[13]
  GI50: 14.3 µM (inactive)
[14]
  GI50: 11 µM (inactive)
[15]
  GI50: 8.75 µM (inactive)
[16]
  GI50: 7.1 µM (inactive)
[17]
  GI50: 10.7 µM (inactive)
[18]
  GI50: 4.47 µM (inactive)
[19]
  GI50: 3.7 µM (inactive)
[20]
  GI50: 0.817 µM (active)
[21]
  GI50: 22.4 µM (inactive)
[22]
  GI50: 11.5 µM (inactive)
[23]
  GI50: 4.91 µM (inactive)
[24]
  GI50: 16.1 µM (inactive)
[25]
  GI50: 14.6 µM (inactive)
[26]
  GI50: 1.77 µM (inactive)
[27]
  GI50: 4.33 µM (inactive)
[28]
  GI50: 3.38 µM (inactive)
[29]
  GI50: 15.3 µM (inactive)
[30]
  GI50: 70.1 µM (inactive)
[31]
  GI50: 28.2 µM (inactive)
[32]
  GI50: 26 µM (inactive)
[33]
  GI50: 3.05 µM (inactive)
[34]
  GI50: 13 µM (inactive)
[35]
  GI50: 17.2 µM (inactive)
[36]
  GI50: 7.67 µM (inactive)
[37]
  GI50: 26.1 µM (inactive)
[38]
  GI50: 16 µM (inactive)
[39]
  GI50: 6.53 µM
[40]
  GI50: 9.18 µM (inactive)
[41]
  GI50: 1.34 µM (inactive)
[42]
  GI50: 17.6 µM (inactive)
[43]
  GI50: 2.26 µM (inactive)
[44]
  GI50: 2.09 µM (inactive)
[45]
  GI50: 2.27 µM (inactive)
[46]
  GI50: 0.687 µM (active)
[47]
  GI50: 33.3 µM (inactive)
[48]
  GI50: 6.12 µM (inactive)
[49]
  GI50: 5.53 µM (inactive)
[50]
  GI50: 2 µM (inactive)
[51]
  GI50: 26.9 µM (inactive)
[52]
  GI50: 10.3 µM (inactive)

## O=C(CNc1ccccc1C(=O)O)Nn1cnc2ccc(S(=O)(=O)Nc3ccccc3C(=O)O)cc2c1=O
[2]
  GI50: > 100 µM (inactive)
[3]
  GI50: > 100 µM (inactive)
[4]
  GI50: > 100 µM (inactive)
[5]
  GI50: > 100 µM (inactive)
[6]
  GI50: > 100 µM (inactive)
[7]
  GI50: > 100 µM (inactive)
[53]
  GI50: > 100 µM (inactive)
[8]
  GI50: > 100 µM (inactive)
[9]
  GI50: > 100 µM (inactive)
[10]
  GI50: > 100 µM (inactive)
[54]
  GI50: > 100 µM (inactive)
[11]
  GI50: > 100 µM (inactive)
[12]
  GI50: > 100 µM (inactive)
[13]
  GI50: > 100 µM (inactive)
[14]
  GI50: > 100 µM (inactive)
[15]
  GI50: > 100 µM (inactive)
[17]
  GI50: > 100 µM (inactive)
[18]
  GI50: > 100 µM (inactive)
[19]
  GI50: > 100 µM (inactive)
[20]
  GI50: > 100 µM (inactive)
[21]
  GI50: > 100 µM (inactive)
[22]
  GI50: > 100 µM (inactive)
[23]
  GI50: > 100 µM (inactive)
[24]
  GI50: > 100 µM (inactive)
[25]
  GI50: > 100 µM (inactive)
[26]
  GI50: > 100 µM (inactive)
[27]
  GI50: > 100 µM (inactive)
[28]
  GI50: > 100 µM (inactive)
[29]
  GI50: > 100 µM (inactive)
[55]
  GI50: > 100 µM (inactive)
[30]
  GI50: > 100 µM (inactive)
[56]
  GI50: > 100 µM (inactive)
[31]
  GI50: > 100 µM (inactive)
[32]
  GI50: > 100 µM (inactive)
[57]
  GI50: > 100 µM (inactive)
[33]
  GI50: > 100 µM (inactive)
[34]
  GI50: > 100 µM (inactive)
[35]
  GI50: > 100 µM (inactive)
[36]
  GI50: > 100 µM (inactive)
[37]
  GI50: > 100 µM (inactive)
[58]
  GI50: > 100 µM (inactive)
[38]
  GI50: > 100 µM (inactive)
[39]
  GI50: > 100 µM
[40]
  GI50: > 100 µM (inactive)
[41]
  GI50: > 100 µM (inactive)
[42]
  GI50: > 100 µM (inactive)
[43]
  GI50: > 100 µM (inactive)
[44]
  GI50: > 100 µM (inactive)
[45]
  GI50: > 100 µM (inactive)
[46]
  GI50: > 100 µM (inactive)
[47]
  GI50: > 100 µM (inactive)
[48]
  GI50: > 100 µM (inactive)
[50]
  GI50: > 100 µM (inactive)
[51]
  GI50: > 100 µM (inactive)
[52]
  GI50: > 100 µM (inactive)

## CCC(C)C1NC(=O)C2CCCN2C(=O)C(CC2CO2)OC(=O)CCNC(=O)C(C)N(C)C(=O)C(C(C)C)N(C)C1=O (stereo not given)
[1]
  GI50: 0.0713 µM (active)
[2]
  GI50: 0.197 µM (active)
[3]
  GI50: 3.11 µM (inactive)
[4]
  GI50: 0.112 µM (active)
[5]
  GI50: < 0.0158 µM (active)
[6]
  GI50: < 0.0414 µM (active)
[53]
  GI50: > 5.08 µM (inactive)
[8]
  GI50: 0.181 µM (active)
[9]
  GI50: 1.73 µM (inactive)
[10]
  GI50: 1.06 µM (active)
[54]
  GI50: > 22.9 µM (inactive)
[11]
  GI50: 0.0142 µM (active)
[12]
  GI50: 0.176 µM (active)
[13]
  GI50: > 100 µM (inactive)
[14]
  GI50: > 47.8 µM (inactive)
[15]
  GI50: < 0.0279 µM (active)
[16]
  GI50: 6.05 µM (inactive)
[17]
  GI50: > 100 µM (inactive)
[18]
  GI50: 0.0478 µM (active)
[19]
  GI50: < 0.0236 µM (active)
[20]
  GI50: < 0.0208 µM (active)
[21]
  GI50: 0.111 µM (active)
[22]
  GI50: 0.0601 µM (active)
[23]
  GI50: 7.31 µM (inactive)
[24]
  GI50: 0.22 µM (active)
[27]
  GI50: 0.54 µM (active)
[28]
  GI50: < 0.024 µM (active)
[29]
  GI50: 0.889 µM (active)
[55]
  GI50: < 0.0223 µM (active)
[30]
  GI50: 2.75 µM (inactive)
[31]
  GI50: 0.331 µM (active)
[32]
  GI50: > 13.4 µM (inactive)
[33]
  GI50: 0.0209 µM (active)
[34]
  GI50: 21.8 µM (inactive)
[35]
  GI50: 35.4 µM (inactive)
[36]
  GI50: 2.14 µM (inactive)
[37]
  GI50: > 100 µM (inactive)
[58]
  GI50: 0.199 µM (active)
[38]
  GI50: > 8.22 µM (inactive)
[39]
  GI50: 12.8 µM
[40]
  GI50: 0.993 µM (active)
[41]
  GI50: < 0.01 µM (active)
[42]
  GI50: 1.43 µM (inactive)
[43]
  GI50: 3.3 µM (inactive)
[44]
  GI50: 0.0946 µM (active)
[45]
  GI50: 0.968 µM (active)
[46]
  GI50: 0.0182 µM (active)
[48]
  GI50: > 14 µM (inactive)
[49]
  GI50: < 0.0169 µM (active)
[50]
  GI50: 1.57 µM (inactive)
[51]
  GI50: > 100 µM (inactive)
[59]
  GI50: > 100 µM (inactive)
[52]
  GI50: 0.0267 µM (active)
